What was measured:
Assay type in all cases: in vivo, rice
[1] = test system: RT IMI hybrids (LF2-RTC2/LM1-RTC1, LF1-RTC2/LM1-RTC1, LF3-RTC2\LM4-RTC1); experiment: 16GH-T7 greenhouse Imazamox trial, injury in RT IMI hybrids; settings: Imazamox 0.5×, 1×, 2× or 4× at about preflood stage, alone or 2 weeks after 1× Imazethapyr, any treatment
Source text: (§1) FIG. 3A to FIG. 3I illustrate the results of Example 1: FIG. 3A control; FIG. 3B 0.5× Imazamox; FIG. 3C 1× Imazamox; FIG. 3D 2× Imazamox; FIG. 3E 4× Imazamox; FIG. 3F 1× Imazethapyr+0.5× Imazamox; FIG. 3G 1× Imazethapyr+1× Imazamox; FIG. 3H 1× Imazethapyr+2× Imazamox; FIG. 3I 1× Imazethapyr+4× Imazamox; Pots L to R: LF2-RTC2/LM1-RTC1, LF1-RTC2/LM1-RTC1, LF3-RTC2\LM4-RTC1, mutated line P1003A205V, mutated line R0146G654E, sensitive control commercial variety Cypress, commercial hybrid CLXL745.
(§2) Trial consisted of 2 treatment regimens with Imazamox applications at approximately the preflood stage with rates of 0.5×, 1×, 2×, or 4×, either alone or 2 weeks following application of 1× Imazethapyr.
(§3) FIG. 4 Representative Pots 4 Weeks Post Application of Imazamox.

[2] = test system: single trait mutant lines (P1003A205V, R0146G654E); experiment: 16GH-T7 greenhouse Imazamox trial, injury in single trait mutant lines; settings: Imazamox 0.5× to 4× at about preflood stage, alone or 2 weeks after 1× Imazethapyr
Source text: as §1, §2, §3

[3] = test system: heterozygous A205V hybrids; settings: 2 leaf and preflood application
Source text: Trial: 2 leaf and preflood application of Imazethapyr or Kifix™ (imazapic/imazapir) herbicide on materials converted with RiceTec IMI traits and commercial IMI control.

A205V-G654E hybrids = experiment: 15SA-T9 IMI conversion efficacy trial; settings: 2 applications (2 leaf and preflood)
Method: 2 leaf and preflood application of IMI herbicide on materials converted with RiceTec IMI traits and controls. All males included RTC1 (A205V) in their genome. Females with RTC2 (G654E) were not included due to limited seed numbers. Females were tested separately in 15GH-T8 using potted plant replications.

G654E/A205V hybrids = experiment: 16-T7 log sprayer trial, Imazethapyr, G654E/A205V hybrids; settings: single application, half-step log sprayer, rates 16× to 1/128×; either hybrid
[4] = test system: homozygous A205V (RTC1) mutant line (P1003A205V); experiment: 16-T7 log sprayer trial, Imazethapyr, homozygous A205V line; settings: single application, all tested rates 8× (48 oz/acre) and lower
[5] = test system: G654E (RTC2) homozygous line; experiment: 16-T7 log sprayer trial, Imazethapyr, homozygous G654E line; settings: single application, half-step log sprayer, rates 16× to 1/128×

Row | Compound | injury [1] | injury [2] | tolerance as compared to the A205V-G654E hybrids [3] | injury rates (A205V-G654E hybrids) | % of injury 3 weeks post 3-4 leaf application (G654E/A205V hybrids) | % of injury 3 weeks post 3-4 leaf application [4] | % of injury 3 weeks post 3-4 leaf application [5]
1 | COCc1cnc(C2=NC(C)(C(C)C)C(=O)N2)c(C(=O)O)c1 (stereo not shown) [Imazamox, imazamox] | No injury | injury was observed |  |  |  |  | 
2 | CCc1cnc(C2=NC(C)(C(C)C)C(=O)N2)c(C(=O)O)c1 (stereo not shown) [Imazethapyr, imazethapyr] |  |  | reduced tolerance | very low injury rates | no observed injury | below 10% | lower than expected
